For 5 compounds, activation results are on record in PubChem BioAssay AID651833 (Broad Institute, 2012).

Active and inactive are the calls of the source.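 The calls were made as follows: active = fitted curve reaching 40% activation at or below the sample's highest valid tested dose; inconclusive = flat fit between 30% and 70%, or poor fit; inactive = the rest, including opposite-direction activity.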

The target of the assay is Kelch-like ECH-associated protein 1 (Homo sapiens) + Nuclear factor erythroid 2-related factor 2 (Homo sapiens) (UniProt Q14145+Q16236). In words: cellular Nrf2 nuclear translocation induction – PathHunter, U2OS cells, dry powder, orthogonal assay for Keap1-Nrf2 interaction inhibitor project, dose response (AID 651833). Conditions: beta-gal luminescence, 3 h, at 38 µM (top of the series).
Sequence of Kelch-like ECH-associated protein 1 (Homo sapiens) + Nuclear factor erythroid 2-related factor 2 (Homo sapiens) (Q14145 whole entry, looked up): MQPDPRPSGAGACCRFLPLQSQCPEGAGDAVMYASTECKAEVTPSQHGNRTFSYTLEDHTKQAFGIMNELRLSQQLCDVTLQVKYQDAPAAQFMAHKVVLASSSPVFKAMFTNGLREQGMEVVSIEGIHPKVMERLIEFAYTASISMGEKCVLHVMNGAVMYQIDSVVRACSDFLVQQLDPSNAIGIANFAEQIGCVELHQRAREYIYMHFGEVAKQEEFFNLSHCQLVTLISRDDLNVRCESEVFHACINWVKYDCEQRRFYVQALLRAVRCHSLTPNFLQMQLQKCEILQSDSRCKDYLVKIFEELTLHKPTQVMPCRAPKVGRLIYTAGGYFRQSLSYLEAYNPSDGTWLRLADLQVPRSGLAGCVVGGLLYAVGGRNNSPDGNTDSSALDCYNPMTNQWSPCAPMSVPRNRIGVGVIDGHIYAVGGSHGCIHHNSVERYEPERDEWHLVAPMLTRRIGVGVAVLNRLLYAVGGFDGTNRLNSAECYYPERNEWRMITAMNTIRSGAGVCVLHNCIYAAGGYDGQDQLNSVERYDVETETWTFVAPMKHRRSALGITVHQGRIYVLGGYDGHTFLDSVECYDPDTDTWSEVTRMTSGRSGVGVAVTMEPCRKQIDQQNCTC
Sequence of Kelch-like ECH-associated protein 1 (Homo sapiens) + Nuclear factor erythroid 2-related factor 2 (Homo sapiens) (Q16236 whole entry, looked up): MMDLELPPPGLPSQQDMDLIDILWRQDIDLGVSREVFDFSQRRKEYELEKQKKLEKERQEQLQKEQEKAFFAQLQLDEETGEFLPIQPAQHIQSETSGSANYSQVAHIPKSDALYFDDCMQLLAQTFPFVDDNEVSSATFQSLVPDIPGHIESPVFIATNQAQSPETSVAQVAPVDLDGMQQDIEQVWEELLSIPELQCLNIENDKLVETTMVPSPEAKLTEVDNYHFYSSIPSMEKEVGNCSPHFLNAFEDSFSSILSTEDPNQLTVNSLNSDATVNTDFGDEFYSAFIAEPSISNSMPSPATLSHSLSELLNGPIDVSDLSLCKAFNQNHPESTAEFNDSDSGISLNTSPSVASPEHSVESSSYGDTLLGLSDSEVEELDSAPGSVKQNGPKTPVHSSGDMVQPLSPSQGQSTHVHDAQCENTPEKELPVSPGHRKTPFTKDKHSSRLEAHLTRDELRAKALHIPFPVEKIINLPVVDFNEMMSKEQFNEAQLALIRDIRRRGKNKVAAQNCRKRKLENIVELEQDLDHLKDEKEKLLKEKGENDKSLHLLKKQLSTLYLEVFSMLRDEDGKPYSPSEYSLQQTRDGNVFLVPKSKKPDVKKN
`O=C(NC[C@@H]1c2ccccc2CCN1C(=O)[C@@H]1CCCC[C@@H]1C(=O)O)c1ccc(CN2CCOCC2)cc1`: the activation is 2.86% (inactive).
With `CCOC(=O)C(C(=O)OCC)c1cc(CN2C(=O)c3ccccc3C2=O)c2ccccc2n1` the figure was 9.41% (inactive); with `O=C(O)CCCC(=O)N1CCc2ccccc2C1CN1C(=O)c2ccccc2C1=O` (stereo not given), 3.41% (inactive).
With `O=C(O)[C@H]1CCCC[C@H]1C(=O)N1CCc2ccccc2[C@H]1CNS(=O)(=O)c1ccccc1`, the activation is 7.86% (inactive).
Regarding `NC(=O)c1ccccc1C(=O)NC[C@@H]1c2ccccc2CCN1C(=O)[C@@H]1CCCC[C@@H]1C(=O)O`, the activation is 8.88% (inactive).
